Bridge positions count the residues as written; N and C are the ends. Square brackets hold non-standard residues; d marks the D form. Peptide text beside a SMILES is read from it. dPhe(4-Cl) = N[C@H](Cc1ccc(Cl)cc1)C(=O)O; d2Nal = N[C@H](Cc1ccc2ccccc2c1)C(=O)O; Dap = NC[C@H](N)C(=O)O

A short description of the assay: Biological potency in the anti-ovulatory assay in rat (dosage rats ovulating/total rats). The format is functional.
Compound `CC(=O)N1CCC[C@H]1C(=O)N[C@H](Cc1ccc(F)cc1)C(=O)N[C@H](Cc1c[nH]c2ccccc12)C(=O)N[C@H]1CC(=O)NC[C@@H](C(N)=O)NC(=O)[C@@H]2CCCN2C(=O)[C@H](CCCN=C(N)N)NC(=O)[C@H](CC(C)C)NC(=O)[C@@H](Cc2ccc3ccccc3c2)NC(=O)[C@H](Cc2ccc(O)cc2)NC1=O` displayed a Dosage of 10 µg.
Under `CC(C)C[C@@H]1C(=O)N[C@@H](CCCN=C(N)N)C(=O)N2CCC[C@@H]2C(=O)NCCC(=O)N2CCC[C@@H]2C(=O)N[C@@H](Cc2ccc(Cl)cc2)C(=O)N[C@H](Cc2c[nH]c3ccccc23)C(=O)N[C@@H](CO)C(=O)N[C@H](Cc2ccc(O)cc2)C(=O)N[C@@H](Cc2c[nH]c3ccccc23)C(=O)N1C` stands 1000 µg; under `CC(=O)N[C@H](Cc1ccc2ccccc2c1)C(=O)N[C@H](Cc1ccc(Cl)cc1)C(=O)N[C@H](Cc1c[nH]c2ccccc12)C(=O)N[C@H]1CC(=O)NC[C@@H](C(N)=O)NC(=O)[C@@H]2CCCN2C(=O)[C@@H]2CCCCNC(=O)CC[C@H](NC1=O)C(=O)N[C@H](CCCN=C(N)N)C(=O)N[C@@H](CC(C)C)C(=O)N2` (Ac-[d2Nal][dPhe(4-Cl)][dW]DE[dR]LKP[Dap]-NH2; lactam 4-10, 5-8), 5 µg.

These data come from ChEMBL document CHEMBL1126869, “Conformational analysis of a highly potent dicyclic gonadotropin-releasing hormone antagonist by nuclear magnetic resonance and molecular dynamics” (1993).
